Laboratory results: patent publication US10562842B2, “Use of polyaminoisoprenyl derivatives in antibiotic or antiseptic treatment” (UNIVERSITE D'AIX-MARSEILLE, priority 2011, dated 2020)
≈ marks a conversion by molar mass, not a printed value.

Columns and labels:
CHO cells = assay: Toxicity on CHO cultured cells; type: cell-based; details: Cricetulus griseus; killing of 50% of the CHO cells after 24 hours of incubation
Protocol: The toxicity of each compound was determined on CHO cultured cells. Incubation of CHO cells was performed with serial dilution of compounds. The compounds are either solubilized in DMSO or in PBS. The IC50 corresponds to the concentration of compounds leading to a killing of 50% of the CHO cells after 24 hours of incubation.

[1] = test system: Enterobacter aerogenes MDR Ea289; assay: MIC of antibiotics ± test compound (MIC ratio), micro-broth dilution; type: cell-based; details: for MIC ratio Chloramphenicol E. aerogenes Ea289 / MIC ratio Doxycycline E. aerogenes Ea289 / MIC ratio Nalidixic acid E. aerogenes Ea289: Example 4
Protocol: The process consists of treating the MDR bacteria with the compounds of the invention in the presence of antibiotics.
(§1) Susceptibilities to antibiotics and compounds were determined in microplates by broth dilution method, as previously described. Minimal Inhibitory Concentrations (MICs) were determined with an inoculum of 10^6 CFU in 200 μL of MH broth containing two-fold serial dilutions of each drug. […] All MIC determinations were repeated at least three times in independent experiments.
(§2) The MICs of chloramphenicol±test compounds (MIC/4) were determined by the micro-broth dilution method (9). All MIC determinations were repeated at least three times in independent experiments. The MIC ratio corresponds to the ratio of the MIC of an antibiotic alone to the MIC of the same antibiotic in the presence of the tested compound (at MIC/4).
The compounds listed in Table 2 were tested for their ability to decrease the chloramphenicol MIC of Ea289, an Enterobacter aerogenes MDR strain (1). Each compound was first tested at MIC/4. […] All MIC determinations were repeated at least three times in independent experiments.
(§3) For reminder, the MIC ratio corresponds to the ratio of the MIC of the assessed antibiotic alone to the MIC of the same antibiotic in the presence of the tested compound (at MIC/4).

ATCC 13048 = assay: as above; type: cell-based, Enterobacter aerogenes; details: compound at MIC/4; Example 4
Protocol: as §1, §2, §3

CM64 = assay: as above; type: cell-based, Enterobacter aerogenes; details: compound at MIC/4; Example 4
Protocol: as §1, §2, §3

Ea27 = assay: as above; type: cell-based, Enterobacter aerogenes; details: compound at MIC/4; Example 4
Protocol: as §1, §2, §3

AB1 = assay: as above; type: cell-based, Acinetobacter baumannii; details: compound at MIC/4
Protocol: as §1, §2, §3

ATCC 19606 = assay: as above; type: cell-based, Acinetobacter baumannii; details: compound at MIC/4
Protocol: as §1, §2, §3

Ea289 = assay: MIC by broth dilution (intrinsic MIC); type: cell-based, Enterobacter aerogenes; details: Klebsiella aerogenes; Enterobacter Ea289
Protocol: as §1

BN10055 = assay: MIC by broth dilution (intrinsic MIC); type: cell-based, Salmonella enterica; details: Salmonella enterica; Salmonella BN10055
Protocol: as §1

BN10055ΔacrB = assay: MIC by broth dilution (intrinsic MIC); type: cell-based, Salmonella enterica; details: Salmonella BN10055ΔacrB
Protocol: as §1

[2] = test system: strain IV2571223 - Escherichia coli pig (sensible); assay: MIC of antibiotics in the presence and absence of test compound, veterinary strains; type: cell-based; parameters: MIC for strain IV2571223, Doxycycline in the presence of test compound: unit not given beside the values; details: compound at the Concentration (μM) (2-50)
Protocol: (§4) For each strain and each antibiotic, the MICs were determined in the presence and in the absence of one test compound.

[3] = test system: strain IV2570060 - Escherichia coli cattle (sensible); assay: as above; type: cell-based; details: compound at the Concentration (μM) (4-50)
Protocol: as §4

[4] = test system: strain IV2570533 - Escherichia coli cattle (resistant); assay: as above; type: cell-based; details: compound at the Concentration (μM) (0.896-12.6)
Protocol: as §4

[5] = test system: Enterobacter, Salmonella and Escherichia strains; assay: MIC ratio, several strains; type: cell-based
Text: as §3

[6] = test system: Pseudomonas and Actinebacter strains; assay: MIC ratio, several strains; type: cell-based
Text: as §3

[7] = test system: Enterobacter aerogenes MDR Ea289; assay: MIC of antibiotics ± test compound (MIC ratio), micro-broth dilution; type: cell-based; details: compound at MIC/4, Set 2; for MIC ratio (*) on Ea289 Dox: doxycycline; for MIC ratio (*) on Ea289 Nal: nalidixic acid
[8] = chloramphenicol, compound at MIC/4, Set 2

## CC(C)=CCCC(C)=CCNCCCN(CCCN)CCCN (racemic) [Compound 11, {3-[Bis-(3-amino-propyl)-amino]-propyl}-(3,7-dimethyl-octa-2,6-dienyl)-amine]
CHO cells
  IC50: 0.282 mM
[1]; chloramphenicol
  Effective concentration (mM) for a MIC ratio of chloramphenicol ≥ 8 on Ea289: 0.0078 mM
[1]; chloramphenicol MIC ratio of 8 on Ea289
  efficient concentration, times lower than the control PAβN: about 4.9 times
[1]; chloramphenicol on Ea289
  activity, effective concentration compared with PAβN to reach a MIC ratio of 8: strong activity
[1]; chloramphenicol, compound at MIC/4, Set 1
  MIC ratio (*) on Ea289 Chl: 16
[1]; [8]
  MIC ratio (*) on Ea289 Chl: 8
[1]; compound at MIC/4
  MIC ratio Chloramphenicol E. aerogenes Ea289: 8
  MIC ratio Doxycycline E. aerogenes Ea289: 32
  MIC ratio Nalidixic acid E. aerogenes Ea289: 8
[1]; erythromycin, compound at MIC/4, Set 1
  MIC ratio(*) on Ea289 Ery: 32
[1]; nalidixic acid, compound at MIC/4, Set 1
  MIC ratio (*) on Ea289 Nal: 8
ATCC 13048
  MIC ratio Chloramphenicol E. aerogenes ATCC13048: >32
  MIC ratio Doxycycline E. aerogenes ATCC13048: 64
  MIC ratio Oxacillin E. aerogenes ATCC13048: >8
CM64
  MIC ratio Chloramphenicol E. aerogenes CM64: 16
  MIC ratio Oxacillin E. aerogenes CM64: >8
Ea27
  MIC ratio Chloramphenicol E. aerogenes Ea27: >4
  MIC ratio Doxycycline E. aerogenes Ea27: 32
  MIC ratio Oxacillin E. aerogenes Ea27: 1
AB1
  MIC ratio Cefepime Acinetobacter baumannii AB1: 1
  MIC ratio Chloramphénicol Acinetobacter baumannii AB1: 16
  MIC ratio Doxycycline Acinetobacter baumannii AB1: 2
  MIC ratio Tetracycline Acinetobacter baumannii AB1: 2
ATCC 19606
  MIC ratio Cefepime Acinetobacter baumannii ATCC19606: 4-8
  MIC ratio Chloramphénicol Acinetobacter baumannii ATCC19606: 8
  MIC ratio Doxycycline Acinetobacter baumannii ATCC19606: 1
  MIC ratio Tetracycline Acinetobacter baumannii ATCC19606: 8
Ea289
  MIC: 31 µM (≈ 10.1 µg/mL)
BN10055
  MIC: 31 µM (≈ 10.1 µg/mL)
BN10055ΔacrB
  intrinsic MIC, BN10055ΔacrB: 15 µM
[2]
  MIC for strain IV2571223, Doxycycline in the presence of test compound: 0.03125
  MIC for strain IV2571223, Tylosine in the presence of test compound: 16
[3]
  MIC for strain IV2570060, Doxycycline in the presence of test compound: 0.0625
  MIC for strain IV2570060, Tylosine in the presence of test compound: 4
[4]
  MIC for strain IV2570533, Doxycycline in the presence of test compound: 1
  MIC for strain IV2570533, Tylosine in the presence of test compound: 4
[5]; Enterobacter Salmonella and Escherichia strains
  sensitivity for chloramphenicol, nalidixic acid, doxycycline and oxacillin: increased the sensitivity
[5]; tetracycline, data not shown
  sensitivity to tetracycline, Enterobacter, Salmonella and E. coli strains: such an increase was not observed
[6]; Pseudomonas and Actinebacter strains
  sensitivity of strains to chloramphenicol: greatly increased the sensitivity
[6]; tetracycline
  sensitivity to tetracycline, Pseudomonas and Actinebacter strains: increased the sensitivity
[7]
  MIC ratio (*) on Ea289 Dox: 32
  MIC ratio (*) on Ea289 Nal: 8

## CC(C)=CCC/C(C)=C/CC/C(C)=C/CNCCCN(C)CCCN [Compound 14, {3-[(3-Amino-propyl)-methyl-amino]-propyl}-((2E,6E)-3,7,11-trimethyl-dodeca-2,6,10-trienyl)-amine]
[1]; [8]
  MIC ratio (*) on Ea289 Chl: 8
[1]; compound at MIC/4
  MIC ratio Chloramphenicol E. aerogenes Ea289: 8
  MIC ratio Doxycycline E. aerogenes Ea289: 64
  MIC ratio Nalidixic acid E. aerogenes Ea289: 32
ATCC 13048
  MIC ratio Chloramphenicol E. aerogenes ATCC13048: >32
  MIC ratio Doxycycline E. aerogenes ATCC13048: 64
  MIC ratio Oxacillin E. aerogenes ATCC13048: >8
CM64
  MIC ratio Chloramphenicol E. aerogenes CM64: 16
  MIC ratio Oxacillin E. aerogenes CM64: >8
Ea27
  MIC ratio Chloramphenicol E. aerogenes Ea27: >4
  MIC ratio Doxycycline E. aerogenes Ea27: 32
  MIC ratio Oxacillin E. aerogenes Ea27: 1
AB1
  MIC ratio Cefepime Acinetobacter baumannii AB1: 1
  MIC ratio Chloramphénicol Acinetobacter baumannii AB1: 16
  MIC ratio Doxycycline Acinetobacter baumannii AB1: 2
  MIC ratio Tetracycline Acinetobacter baumannii AB1: 4
ATCC 19606
  MIC ratio Cefepime Acinetobacter baumannii ATCC19606: 4-8
  MIC ratio Chloramphénicol Acinetobacter baumannii ATCC19606: 8
  MIC ratio Doxycycline Acinetobacter baumannii ATCC19606: 1
  MIC ratio Tetracycline Acinetobacter baumannii ATCC19606: 4
Ea289
  MIC: 31 µM (≈ 10.8 µg/mL)
BN10055
  MIC: 31 µM (≈ 10.8 µg/mL)
BN10055ΔacrB
  intrinsic MIC, BN10055ΔacrB: 15 µM
[2]
  MIC for strain IV2571223, Doxycycline in the presence of test compound: 0.03125
  MIC for strain IV2571223, Tylosine in the presence of test compound: 2
[3]
  MIC for strain IV2570060, Doxycycline in the presence of test compound: 0.0625
  MIC for strain IV2570060, Tylosine in the presence of test compound: 8
[4]
  MIC for strain IV2570533, Doxycycline in the presence of test compound: 1
  MIC for strain IV2570533, Tylosine in the presence of test compound: 8
[7]
  MIC ratio (*) on Ea289 Dox: 64
  MIC ratio (*) on Ea289 Nal: 32
